Experimental data from PubChem BioAssay AID449762 (Southern Research Specialized Biocontainment Screening …, 2010).
Inconclusive results are not listed.

Test system: M. tuberculosis H37Rv growth inhibition, 7H9 media
Test: M. tuberculosis growth inhibition, HTS (AID 449762);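 also: bacterial growth assessed after seven days of incubation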
Conditions: for IC90: measured here: IC90 growth inhibition

Row | SMILES | IC50 [µM] | IC90 [µM]
1 | NN(Cc1ccccc1)C(=S)Nc1ccc(Cl)c(Cl)c1 | 33.8 | 58.1
2 | COc1nn(-c2ccccc2)c(=O)c(Cl)c1Cl | 5.52 | 9.06
3 | C/C(=N\N=C(/N)SC1CC(=O)N(c2ccc(Cl)cc2)C1=O)c1cccs1 (stereo not drawn) | 33 | > 100
4 | Nc1cc(Cl)c2nonc2c1[N+](=O)[O-] | 5.83 | 6.64
5 | Cc1ccc(C(=O)CC(SCC(=O)O)c2ccc([N+](=O)[O-])cc2)cc1 (stereo not drawn) | 5.78 | 6.72
6 | C#C[C@]1(O)CC[C@H]2[C@@H]3CCc4cc(OC5CCCC5)ccc4[C@H]3CC[C@@]21C | 35.5 | 48
7 | COc1ccc(NC(=O)ON=C2c3ccccc3-c3ccccc32)cc1 |  | > 100
8 | O=c1cc(-c2ccccc2Cl)oc2ccc([N+](=O)[O-])c(O)c12 | 11.9 | 15.6
9 | COc1ccc(C2CC(=O)C3=C(C2)NC(C)=C(C#N)C3c2ccc(N(C)C)cc2)cc1 (stereo not drawn) | 19.6 | 33
10 | COc1ccccc1C(=O)NC(=S)/C=C1/N(C)c2ccccc2C1(C)C | 34.4 | 43.9
11 | C/C(Cl)=C\COc1cc(C)nc2c(Br)cccc12 | 19.7 | 25.1
12 | O=C(OCC(=O)N1CCC(c2ccccc2)=N1)c1ccc(Cl)s1 | 21.5 | > 25
13 | CCc1nnc(NS(=O)(=O)c2ccc(N/C=C\C(=O)c3cccc(OC)c3)cc2)s1 | 16.2 | 35.5
14 | NC(=S)N/N=C/c1ccc(-c2ccccc2)o1 | 48.8 | 75
15 | Cc1ccc(C2=NN(C)c3nc4ccccc4n3C2)cc1 | 20.4 | 78.3
16 | Nc1ccc(-c2nc3nc(N)nc(N)c3nc2-c2ccc(N)cc2)cc1 | 43 | 57.5
17 | Cc1ccc(-c2ccc(/C=N/c3ncn[nH]3)o2)cc1Cl | 98.8 | > 100
18 | CCCC1CCC(C(=O)Nn2c(C)nc3ccccc3c2=O)CC1 (stereo not drawn) | 50.1 | > 100
19 | CC(C)Cn1c([N+](=O)[O-])nc2c1c(=O)[nH]c(=O)n2C | 5.93 | 8.91
20 | O=C(N/N=C/c1cn(-c2ccccc2)nc1-c1cccs1)c1ccc(Cl)cc1 |  | > 100
21 | CN(C)C(=O)C1C2NC(=S)N(c3ccc(Cl)cc3)C1(C)Oc1ccc(Cl)cc12 (stereo not drawn) | 23.6 | 26.9
22 | O=C(N/N=C/c1c(F)c(F)c(F)c(F)c1F)c1cccc(S(=O)(=O)N2CCOCC2)c1 |  | > 100
23 | CCc1cc(C(=O)Nc2ccc(C)cc2Br)cs1 | 30 | > 100

Row | SMILES | IC50 [µM] | IC90 [µM]
24 | COc1ccccc1OCCN1CSC(=S)N(C)C1 | 6.34 | 15.3
25 | COc1ccccc1C1CC(c2ccc(Cl)cc2)Nc2ncnn21 (stereo not drawn) | 11 | 17.7
26 | COc1ccc(-c2cc3nc(CCl)[nH]c(=O)c3s2)cc1 | 0.88 | 14.5
27 | CC(C)C(=O)N1CCC2(CC1)Oc1ccc(Cl)cc1C(=O)C21CC(c2ccccc2)=NO1 (stereo not drawn) | 67.8 | > 100
28 | O=C(OCc1ccccc1)/C(=C(\O)c1ccccc1Br)c1ccc(-c2ccccc2)cn1 | 23.9 | 45.8
29 | c1ccc(-c2nnc(-c3ccccn3)nn2)nc1 | 3.61 | 6.27
30 | O=C(NCC(c1cccs1)N1CCOCC1)c1cc([N+](=O)[O-])cc([N+](=O)[O-])c1 (stereo not drawn) | 0.72 | 0.81
31 | O=C(NC(=S)Nc1cccc2cccnc12)c1ccccc1 | 14.7 | > 100
32 | Cc1cccc(NC(=O)CCSc2nnc(Cc3ccccc3)o2)c1 | 17.1 | 49.3
33 | Cc1cc(-c2nnc3n2CCCCC3)c(C)n1-c1ccccc1 | 45.7 | 51.4
34 | O=C(NCc1ccc2c(c1)OCO2)c1c(O)nc2sccn2c1=O | 40 | > 100
35 | CCOC(=O)c1c(C)[nH]c(N=Nc2ccc(OC)cc2)c1C | 1.71 | 5.55
36 | O=C(OCC(=O)N1CCN(c2ccccc2)CC1)c1cnc(Cl)c(Cl)c1 | 20 | 41.7
37 | Cn1nc(C(C)(C)C)cc1NC(=O)Nc1cc(Cl)cc(Cl)c1 | 18.5 | 26.3
38 | CCOc1cc(NC(=O)CCl)c(OCC)cc1NC(C)=O | < 0.2 | 5.99
39 | COc1ccc(Cc2nc3ccc(C(=O)NCCCSC)cc3o2)cc1OC | 41.1 | > 100
40 | O=C(OCC(=O)c1c[nH]c2ccccc12)c1cc(Br)ccc1O | 9.23 | 15.3
41 | CCn1c(SCC(=O)Nc2ccc3c(c2)oc2ccccc23)nnc1-c1ccc(N)cc1 |  | > 100
42 | Clc1ccc(-c2cc3ccccc3nc2N2CCCC2)cc1 | 69.2 | > 100
43 | OC(CNCC(c1ccc(Cl)cc1Cl)c1c[nH]c2ccccc12)c1ccccc1 (stereo not drawn) | 16.9 | 23.4
44 | Oc1c(C(c2ccccc2Cl)N2CCCC2)ccc2cccnc12 (stereo not drawn) | 14.1 | 31.1
45 | Cc1[nH]n(-c2ccccc2)c(=O)c1C(C[N+](=O)[O-])c1ccccc1Cl (stereo not drawn) | 6.99 | 14.3
46 | CCCCOC(=O)NS(=O)(=O)c1sc(CC(C)C)cc1-c1ccc(Cn2c(CC)nc3c(C)cc(C)nc32)cc1 | 26.4 | 35.4
